#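 Grown in 96-well plates, cells were treated for 48 hours with each compound at five concentrations. Insufficient inhibition: endpoint recorded as highest concentration tested. GI50 = concentration required for 50% inhibition of growth. TGI: concentration producing complete growth inhibition.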
# Experiments:
# Experiment in all cases: NCI anticancer screen, dose series, 48 h
# OVCAR-3 ovarian = system: OVCAR-3 ovarian
# SNB-19 CNS = system: SNB-19 CNS
# U251 CNS = system: U251 CNS
# IGROV1 ovarian = system: IGROV1 ovarian
# DU-145 prostate = system: DU-145 prostate
# MALME-3M melanoma = system: MALME-3M melanoma
# HT29 colon = system: HT29 colon
# PC-3 prostate = system: PC-3 prostate
# SF-295 CNS = system: SF-295 CNS
# HCT-116 colon = system: HCT-116 colon
# CCRF-CEM leukemia = system: CCRF-CEM leukemia
# OVCAR-4 ovarian = system: OVCAR-4 ovarian
# UACC-62 melanoma = system: UACC-62 melanoma
# NCI-H23 lung = system: NCI-H23 lung
# OVCAR-8 ovarian = system: OVCAR-8 ovarian
# SK-MEL-2 melanoma = system: SK-MEL-2 melanoma
# KM12 colon = system: KM12 colon
# T-47D breast = system: T-47D breast
# CAKI-1 renal = system: CAKI-1 renal
# MDA-MB-435 = system: MDA-MB-435
# NCI/ADR-RES ovarian = system: NCI/ADR-RES ovarian
# MOLT-4 leukemia = system: MOLT-4 leukemia
# SNB-75 CNS = system: SNB-75 CNS
# A549 NSCLC = system: A549 NSCLC
# SN12C renal = system: SN12C renal
# BT-549 breast = system: BT-549 breast
# EKVX NSCLC = system: EKVX NSCLC
# MCF7 breast = system: MCF7 breast
# TK-10 renal = system: TK-10 renal
structure (smiles),measurement,setting,value
Cc1nn(-c2ccccc2)c(-n2ccnc2)c1/C=N/Nc1nc(-c2ccc(Cl)c(Cl)c2)cs1,TGI,OVCAR-3 ovarian,3.44 µM
same,GI50,SNB-19 CNS,16.2 µM
same,TGI,SNB-19 CNS,92.3 µM
same,GI50,U251 CNS,4.28 µM
same,TGI,U251 CNS,20.7 µM
same,GI50,IGROV1 ovarian,6.07 µM
same,TGI,IGROV1 ovarian,26.2 µM
same,GI50,DU-145 prostate,3.15 µM
same,TGI,DU-145 prostate,13.3 µM
same,GI50,MALME-3M melanoma,1.95 µM
same,TGI,MALME-3M melanoma,9.21 µM
same,GI50,HT29 colon,4.99 µM
same,TGI,HT29 colon,> 100 µM
same,GI50,PC-3 prostate,3.02 µM
same,TGI,PC-3 prostate,18.7 µM
same,GI50,SF-295 CNS,5.21 µM
same,TGI,SF-295 CNS,20.3 µM
same,GI50,HCT-116 colon,1.9 µM
same,TGI,HCT-116 colon,4.75 µM
same,GI50,CCRF-CEM leukemia,3.96 µM
same,TGI,CCRF-CEM leukemia,> 100 µM
same,GI50,OVCAR-4 ovarian,1.48 µM
same,TGI,OVCAR-4 ovarian,3.76 µM
same,GI50,UACC-62 melanoma,7.6 µM
same,TGI,UACC-62 melanoma,31.9 µM
same,GI50,NCI-H23 lung,1.94 µM
same,TGI,NCI-H23 lung,9.9 µM
same,GI50,OVCAR-8 ovarian,3.44 µM
same,TGI,OVCAR-8 ovarian,22.3 µM
same,GI50,SK-MEL-2 melanoma,17.5 µM
same,TGI,SK-MEL-2 melanoma,50.8 µM
same,GI50,KM12 colon,7.89 µM
same,TGI,KM12 colon,> 100 µM
same,GI50,T-47D breast,6.65 µM
same,TGI,T-47D breast,> 100 µM
same,GI50,CAKI-1 renal,5.55 µM
same,TGI,CAKI-1 renal,20 µM
same,GI50,MDA-MB-435,84.7 µM
same,TGI,MDA-MB-435,> 100 µM
same,GI50,NCI/ADR-RES ovarian,2.31 µM
same,TGI,NCI/ADR-RES ovarian,9.02 µM
same,GI50,MOLT-4 leukemia,7.33 µM
same,TGI,MOLT-4 leukemia,> 100 µM
same,GI50,SNB-75 CNS,1.66 µM
same,TGI,SNB-75 CNS,5.35 µM
same,GI50,A549 NSCLC,2.72 µM
same,TGI,A549 NSCLC,10 µM
same,GI50,SN12C renal,4.2 µM
same,TGI,SN12C renal,20.1 µM
same,GI50,BT-549 breast,5.88 µM
same,TGI,BT-549 breast,45 µM
same,GI50,EKVX NSCLC,5.7 µM
same,TGI,EKVX NSCLC,36.5 µM
same,GI50,MCF7 breast,2.17 µM
same,TGI,MCF7 breast,6.37 µM
same,GI50,TK-10 renal,20.3 µM
same,TGI,TK-10 renal,63.2 µM
